From US20240343733A1, “COMPOUNDS FOR TARGETING DEGRADATION OF IRAK4 PROTEINS” (BIOGEN MA INC., priority 2021, published 2024) come the findings set out here.

The target of the test is T1, IRAK4 (Homo sapiens, UniProt Q9NWZ3).
T1 construct: 293Tcells expressing HiBiT-tagged IRAK4 were then added into 384-well plates
T1 sequence (Q9NWZ3 1-460): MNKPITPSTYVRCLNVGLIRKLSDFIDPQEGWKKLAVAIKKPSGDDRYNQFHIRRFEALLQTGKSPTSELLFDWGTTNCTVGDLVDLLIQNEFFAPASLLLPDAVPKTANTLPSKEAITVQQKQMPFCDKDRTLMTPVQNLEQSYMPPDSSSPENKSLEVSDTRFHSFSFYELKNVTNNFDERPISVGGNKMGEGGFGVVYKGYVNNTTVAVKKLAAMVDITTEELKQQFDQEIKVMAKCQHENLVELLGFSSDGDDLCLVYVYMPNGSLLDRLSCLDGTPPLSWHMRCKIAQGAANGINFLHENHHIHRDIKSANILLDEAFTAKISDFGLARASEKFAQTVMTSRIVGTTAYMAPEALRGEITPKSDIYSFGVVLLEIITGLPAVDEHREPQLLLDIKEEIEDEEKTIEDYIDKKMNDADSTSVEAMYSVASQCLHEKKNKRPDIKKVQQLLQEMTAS
Description: IRAK4 Degradation Assay, HiBiT Method. Format: cell-based. The settings on record: 293T cells expressing HiBiT-tagged IRAK4, 6 hours. In a few lines: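 293T cells with HiBiT knocked in at the C-terminus of endogenous IRAK4, 10,000 per well, treated 6 h at 37 °C with an 11-point half-log series ([…]), in duplicate. Remaining IRAK4 read by Nano-Glo HiBiT lytic luminescence against DMSO-only and media-only controls.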
On the technique in general: With HiBiT, luminescence reflects the tagged protein that the partner subunit can reach.
For orientation: DC50 means the midpoint of the concentration-degradation curve. Low values mean a more potent degrader, high ones a less potent degrader. For `CC(C)Oc1cc2nn([C@H]3CC[C@H](CN4CCC(c5cc6c(cc5F)c(N5CCC(=O)NC5=O)nn6C)CC4)CC3)cc2cc1C(=O)Nc1cccn(C2CC2)c1=O` [Example 198, N-(1-cyclopropyl-2-oxo-1,2-dihydropyridin-3-yl)-2-((r,4r)-4-((4-(3-(2,4-dioxotetrahydropyrimidin-1(2H)-yl)-5-fluoro-1-methyl-1H-indazol-6-yl)piperidin-1-yl)methyl)cyclohexyl)-6-isopropoxy-2H-indazole-5-carboxamide], the DC50 is less than 10 nM.
Compound `CC(C)Oc1cc2nn(C3CCN(C(=O)N(C)C4CCN(c5ncc(C6CCC(=O)NC6=O)cc5F)CC4)CC3)cc2cc1C(=O)Nc1cccn([C@H]2C[C@H]2F)c1=O` (stereo partly drawn) [Example 155, 2-(1-((1-(5-(2,6-dioxopiperidin-3-yl)-3-fluoropyridin-2-yl)piperidin-4-yl)(methyl)carbamoyl)piperidin-4-yl)-N-(1-((1S,2R)-2-fluorocyclopropyl)-2-oxo-1,2-dihydropyridin-3-yl)-6-isopropoxy-2H-indazole-5-carboxamide] gave a half-maximal degradation concentration (DC50) of 10 to 100 nM.
In the case of `CC(C)Oc1cc2nc([C@H]3CC[C@H](CN4CCC(c5ccc6c(c5)oc(=O)n6C5CCC(=O)NC5=O)CC4)CC3)cn2cc1C(=O)Nc1cnn2cccnc12` (stereo partly shown) [Example 173, 2-((1r,4r)-4-((4-(3-(2,6-dioxopiperidin-3-yl)-2-oxo-2,3-dihydrobenzo[d]oxazol-6-yl)piperidin-1-yl)methyl)cyclohexyl)-7-isopropoxy-N-(pyrazolo[1,5-a]pyrimidin-3-yl)imidazo[1,2-a]pyridine-6-carboxamide], the DC50 is less than 10 nM.
For the compound `CC(C)Oc1cc2nc([C@H]3CC[C@H](CN4CCC(c5ccc6c(c5)oc(=O)n6C5CCC(=O)NC5=O)CC4)CC3)cn2cc1C(=O)Nc1cccn([C@H]2C[C@H]2F)c1=O` (stereo partly drawn) [Example 175, 2-((1r,4S)-4-((4-(3-(2,6-dioxopiperidin-3-yl)-2-oxo-2,3-dihydrobenzo[d]oxazol-6-yl)piperidin-1-yl)methyl)cyclohexyl)-N-(1-((1S,2R)-2-fluorocyclopropyl)-2-oxo-1,2-dihydropyridin-3-yl)-7-isopropoxyimidazo[1,2-a]pyridine-6-carboxamide], the DC50 was less than 10 nM.
The compound `CC(C)Oc1cc2nc(C3CCN(C(=O)CN4CCC(c5ccc(C6CCC(=O)NC6=O)cc5F)CC4)CC3)cn2cc1C(=O)Nc1cccc(C(F)F)n1` (stereo not shown) [Example 80, N-[6-(difluoromethyl)-2-pyridyl]-2-[1-[2-[4-[4-(2,6-dioxo-3-piperidyl)-2-fluoro-phenyl]-1-piperidyl]acetyl]-4-piperidyl]-7-isopropoxy-imidazo[1,2-a]pyridine-6-carboxamide] returned a half-maximal degradation concentration (DC50) of 10 to 100 nM.
In the case of `CC(C)Oc1cc2nc([C@H]3CC[C@](F)(CN4CCC(c5ccc6c(c5)n(C)c(=O)n6C5CCC(=O)NC5=O)CC4)CC3)cn2cc1C(=O)Nc1cccn([C@H]2C[C@H]2F)c1=O` (stereo partly shown) [Example 194], the half-maximal degradation concentration (DC50) fell in the range of 10 to 100 nM.
`CC(C)Oc1cc2nn(C3CCN(C(=O)OC4CCN(c5ncc(C6CCC(=O)NC6=O)cc5F)CC4)CC3)cc2cc1C(=O)Nc1cccn([C@H]2C[C@H]2F)c1=O` (stereo partly drawn) [Example 156, 1-(5-(2,6-dioxopiperidin-3-yl)-3-fluoropyridin-2-yl)piperidin-4-yl 4-(5-((1-((1S,2R)-2-fluorocyclopropyl)-2-oxo-1,2-dihydropyridin-3-yl)carbamoyl)-6-isopropoxy-2H-indazol-2-yl)piperidine-1-carboxylate] showed a half-maximal degradation concentration (DC50) of 10 to 100 nM.
For `CC(C)Oc1cc2nc([C@H]3CC[C@H](CN(C)C4CCN(c5cccc(C6CCC(=O)NC6=O)c5)CC4)CC3)cn2cc1C(=O)Nc1cccc(C(F)F)n1` (stereo partly shown) [Example 28, N-[6-(difluoromethyl)-2-pyridyl]-2-[4-[[[1-[3-(2,6-dioxo-3-piperidyl)phenyl]-4-piperidyl]-methyl-amino]methyl]cyclohexyl]-7-isopropoxy-imidazo[1,2-a]pyridine-6-carboxamide] the value was 10 to 100 nM; for `Cc1cnc2c(NC(=O)c3cn4cc([C@H]5CC[C@H](CN6CCC(c7cc(F)c(C8CCC(=O)NC8=O)cc7F)C(F)(F)C6)CC5)nc4cc3OC(C)C)cnn2c1` (stereo partly shown) [Example 54, 2-[4-[[4-[4-(2,6-dioxo-3-piperidyl)-2,5-difluoro-phenyl]-3,3-difluoro-1-piperidyl]methyl]cyclohexyl]-7-isopropoxy-N-(6-methylpyrazolo[1,5-a]pyrimidin-3-yl)imidazo[1,2-a]pyridine-6-carboxamide], 100 to 500 nM.
The compound `CC(C)Oc1cc2nc([C@H]3CC[C@H](CN4CCC(c5ccc6c(c5)n(C)c(=O)n6C5CCC(=O)NC5=O)C(F)(F)C4)CC3)cn2cc1C(=O)Nc1cccc(C(F)F)n1` (stereo partly shown) [Example 29, N-[6-(difluoromethyl)-2-pyridyl]-2-[4-[[4-[1-(2,6-dioxo-3-piperidyl)-3-methyl-2-oxo-benzimidazol-5-yl]-3,3-difluoro-1-piperidyl]methyl]cyclohexyl]-7-isopropoxy-imidazo[1,2-a]pyridine-6-carboxamide] showed a 50% degradation concentration (DC50) of 10 to 100 nM.
In turn, `CC(C)Oc1cc2nc([C@H]3CC[C@H](CN4CC5(CCN(c6ncc(N7CCC(=O)NC7=O)cc6F)CC5)C4)CC3)cn2cc1C(=O)Nc1cccn([C@H]2C[C@H]2F)c1=O` [Example 179, 2-((1r,4S)-4-((7-(5-(2,4-dioxotetrahydropyrimidin-1(2H)-yl)-3-fluoropyridin-2-yl)-2,7-diazaspiro[3.5]nonan-2-yl)methyl)cyclohexyl)-N-(1-((1S,2R)-2-fluorocyclopropyl)-2-oxo-1,2-dihydropyridin-3-yl)-7-isopropoxyimidazo[1,2-a]pyridine-6-carboxamide] returned a DC50 of less than 10 nM.
Compound `CC(C)Oc1cc2nc(C3CCN(CC(=O)N4CCC(c5ccc(C6(F)CCC(=O)NC6=O)cc5)CC4)CC3)cn2cc1C(=O)Nc1cccc(C(F)F)n1` (stereo not shown) [Example 101, N-[6-(difluoromethyl)-2-pyridyl]-2-[1-[2-[4-[4-(3-fluoro-2,6-dioxo-3-piperidyl)phenyl]-1-piperidyl]-2-oxo-ethyl]-4-piperidyl]-7-isopropoxy-imidazo[1,2-a]pyridine-6-carboxamide] came in with a DC50 of 10 to 100 nM.
Regarding `CC(C)Oc1cc2nn([C@H]3CC[C@H](CN4CC[C@H](c5ccc(OC6CCC(=O)NC6=O)cc5)[C@@H](O)C4)CC3)cc2cc1C(=O)Nc1cccn([C@H]2C[C@H]2F)c1=O` (stereo partly shown) [Example 187], the DC50 is less than 10 nM.
The compound `CC(C)Oc1cc2nc(C3CCN(C(=O)CN4CCC(n5ccc(NC6CCC(=O)NC6=O)n5)CC4)CC3)cn2cc1C(=O)Nc1cccc(C(F)F)n1` (stereo not shown) [Example 83, N-[6-(difluoromethyl)-2-pyridyl]-2-[1-[2-[4-[3-[(2,6-dioxo-3-piperidyl)amino]pyrazol-1-yl]-1-piperidyl]acetyl]-4-piperidyl]-7-isopropoxy-imidazo[1,2-a]pyridine-6-carboxamide] yielded a DC50 of 10 to 100 nM.
Consider `CC(C)Oc1cc2nn(C3CCN(C(=O)CC4CCN(c5ncc(C6CCC(=O)NC6=O)cc5F)CC4)CC3)cc2cc1C(=O)Nc1cnn2cccnc12` (stereo not shown) [Example 148, 2-(1-(2-(1-(5-(2,6-dioxopiperidin-3-yl)-3-fluoropyridin-2-yl)piperidin-4-yl)acetyl)piperidin-4-yl)-6-isopropoxy-N-(pyrazolo[1,5-a]pyrimidin-3-yl)-2H-indazole-5-carboxamide], for which the 50% degradation concentration (DC50) was in the range of 10 to 100 nM.
For `CC(C)Oc1cc2nc(C3CCN(C(=O)CC4CCN(c5ncc(C6CCC(=O)NC6=O)cc5F)CC4)CC3)cn2cc1C(=O)Nc1cccn([C@H]2C[C@H]2F)c1=O` (stereo partly drawn) [Example 161, 2-(1-(2-(1-(5-(2,6-dioxopiperidin-3-yl)-3-fluoropyridin-2-yl)piperidin-4-yl)acetyl)piperidin-4-yl)-N-(1-((1S,2R)-2-fluorocyclopropyl)-2-oxo-1,2-dihydropyridin-3-yl)-7-isopropoxyimidazo[1,2-a]pyridine-6-carboxamide] the value was 10 to 100 nM; for `CC(C)Oc1cc2nc([C@H]3CC[C@H](CN4CCC(c5ccc(NC6CCC(=O)NC6=O)cc5)CC4)CC3)cn2cc1C(=O)Nc1cccc(C(F)(F)F)n1` (stereo partly shown) [Example 2, 2-[4-[[4-[4-[(2,6-dioxo-3-piperidyl)amino]phenyl]-1-piperidyl]methyl]cyclohexyl]-7-isopropoxy-N-[6-(trifluoromethyl)-2-pyridyl]imidazo[1,2-a]pyridine-6-carboxamide], 10 to 100 nM; for `CC(C)Oc1cc2nn([C@H]3CC[C@H](CN4CC[C@@H](c5ncc(NC6CCC(=O)NC6=O)cc5F)[C@H](O)C4)CC3)cc2cc1C(=O)Nc1cccn([C@H]2C[C@H]2F)c1=O` (stereo partly drawn) [Example 136, 2-((1S,4S)-4-(((3S,4S)-4-(5-((2,6-dioxopiperidin-3-yl)amino)-3-fluoropyridin-2-yl)-3-hydroxypiperidin-1-yl)methyl)cyclohexyl)-N-(1-((1S,2R)-2-fluorocyclopropyl)-2-oxo-1,2-dihydropyridin-3-yl)-6-isopropoxy-2H-indazole-5-carboxamide], less than 10 nM.
For `CC(C)Oc1cc2nc(C3CCN(CC(F)=C4CCN(c5ncc(C6CCC(=O)NC6=O)cc5F)CC4)CC3)cn2cc1C(=O)Nc1cccc(C(F)F)n1` (stereo not shown) [Example 112, N-[6-(difluoromethyl)-2-pyridyl]-2-[1-[2-[1-[5-(2,6-dioxo-3-piperidyl)-3-fluoro-2-pyridyl]-4-piperidylidene]-2-fluoro-ethyl]-4-piperidyl]-7-isopropoxy-imidazo[1,2-a]pyridine-6-carboxamide] the value was 10 to 100 nM.
